From US4853403A, “3-phenylthiomethylstyrene derivative, process for preparing the same, and antiallergic agent and tyrosinekinase inhibiting agent containing the same” (Kanegafuchi Kagaku Kogyo Kabushiki Kaisha, priority 1985, dated 1989)
Where two headings read alike, the source gives them in different places.

Columns and labels:
[1] = system: antigen-induced anaphylactic shock death; assay: Protective effect against anaphylactic shock in actively sensitized guinea pigs; type: in vivo, guinea pig (male); conditions: Cavia porcellus, oral, 30 minutes before antigen inhalation, survival 90 minutes or more, read-out: Protecting Effect (Number of test animal survivied/Number of test animal) (converted)
Method: [III] Protective effect against anaphylactic shock in actively sensitized guinea pigs
Antigen-induced anaphylactic shock death was observed according to John P. Devlin [Pulmonary and Antiallergic Drugs, John Wiley & Sons, 155 (1985)].
Each 100 mg/kg of ovalbumin dissolved in physiological saline was injected into peritoneal cavity and into gluteus of male guinea pigs weighing 250 to 350 g. 3 Days later, the animals were further injected intraperitoneally with ovalbumin (100 mg/kg). Those animals were employed for testing 3 to 4 weeks after first sensitization. Actively sensitized guinea pigs were pretreated subcutaneously with pyrilamine (1 mg/kg, 30 min.) to suppress histamine-dependent response and with propanolol ([…], 10 min.) to enhance the response induced by other than histamine before the antigen.
The animal was placed in a desiccator with a capacity of about 5 l and 0.5% aqueous solution of ovalbumin was inhaled with ultrasonic type nebulizer for five minutes. Anaphylactic shock death was observed and the animals survived for 90 minutes or more after antigen were estimated to be protected. The compounds of the present invention and antiasmatic agent were administered orally 30 minutes before the antigen inhalation. The control received vehicle alone similarly.

[2] = biological target: T1, epidermal growth factor acceptor-tyrosinekinase complex (Homo sapiens, UniProt P00533); assay: Tyrosinekinase inhibitory activity (A-431 membrane specimen, EGF-stimulated, [γ-32P]ATP); type: biochemical, human (A-431 cell line derived from human cancerous cell); conditions: read-out: Inhibition rate (tyrosinekinase)
T1 construct: endogenous in cells; host or cells: A-431 (membrane specimen, not solubilized)
Method: Tyrosinekinase inhibitory activity of the compound of the present invention was measured by employing a method for measuring tyrosinekinase activity by G. Carpentor or by S. Cohen et al. [J. Biol. Chem., 254, 4884 (1979); J. Biol. Chem., 257, 1523 (1982)].
Cell line A-431 derived from human cancerous cell was cultured at 37° C. under the condition of 5% CO2 in Dulbecco's modified Eagle medium (made by DAINIPPON PHARMACEUTICAL CO., LTD.) containing 10% fetal bovine serum, 50 μg/ml of streptomycin, 50 IU/ml of penicillin G and 50 μg/ml of canamycin. The obtained cells were treated according to the above Cohen or Graham et al. to give membrane specimen containing epidermal growth factor acceptor-tyrosinekinase complex (hereinafter referred to as "membrane specimen"). The membrane specimen was employed in the following measurement without solubilization.
Sample dissolved in dimethylsulfoxide was added to a mixture of 20 mM of N-2-hydroxyethylpyperadino-N'-2-ethanesulfonate buffer (pH 7.4), 1 mM of MnCl2, 7.5 μg of bovine serum albumin and the membrane specimen (10 μg as protein). After incubation at 0° C. for 5 minutes, 100 ng of epidermal growth factor (hereinafter referred to as "EGF" was added and the mixture was further incubated at 0° C. for 15 minutes. [γ-^32 P]ATP (3000 Ci/mmol, 0.1 μCi) was added to make final volume of 70 μl. After incubation at 0° C. for 15 minutes, 50 μl of the reaction solution was soaked into Wattman 3 MM filter paper and immediately the reaction was stopped by 10% trichloroacetic acid-10 mM sodium pyrophosphate aqueous solution. The filter paper was sufficiently washed with the same solution and then washed with ethanol and dried. Radioactivity present in the filter paper was measured by liquid scintillation counter (A). Similarly, radioactivity was measured in case of the reaction without EGF (B), the reaction without the sample (C), and the reaction without both EGF and the sample (D) as a control.
Tyrosinekinase inhibition rate (%) was calculated by the following equation. [formula]

[3] = system: SRS-A biosynthesis or release; assay: SRS-A biosynthesis or release inhibitory activity (ovalbumin-challenged sensitized guinea pig lung fragments, bioassay on guinea pig ileum); type: cell-based, guinea pig (male Hartley); conditions: Cavia porcellus, read-out: Inhibition rate (SRS-A biosynthesis or release)
Method: [I] SRS-A biosynthesis or release inhibitory activity
SRS-A biosynthesis or release inhibitory activity was examined according to Koda et al. [Nippon yakurigakkaishi, 66, 194(1970)] and Kono-Watanabe et al. [J. Immunology, 125, 946(1980)].
Male Hartley guinea pigs weighing 350 to 450 g were sensitized by injecting once each 1 ml of an ovalbumin (100 mg/ml) into gluteus and peritoneal cavity. Four weeks after the injection, the animals were killed and then immediately the lung was perfused with cooled Tyrode's solution to remove blood. The lung was chopped into about 2 mm fragments and 500 mg of the fragments were suspended in 4.84 ml of Tyrode's solution, to which 0.01 ml of the test compound dissolved in dimethylsulfoxide (DMSO) was added. After incubation at 37° C. for 10 minutes, 0.15 ml of an ovalbumin (10 mg/ml) was added, followed by incubation at 37° C. for 20 minutes. In control, DMSO was added and the reaction was conducted in the same manner. The reaction mixture was filtered with gauze.
An amount of SRS-A in the filtrate was bioassayed using guinea pig ileum; i.e. the ileum (length: 2 to 3 cm) was suspended in Magnus tube containing aerated Tyrode's solution at 31° C. and, after the plateau of contraction was obtained, an amount of SRS-A in the above filtrate was bioassayed in the presence of 1 μM of atropine and 1 μM of pyrilamine. Inhibition rate (%) was calculated from a contraction in control as 100.

[4] = system: homologous passive cutaneous anaphylaxis (PCA); assay: Inhibitory activity against homologous passive cutaneous anaphylaxis (PCA) in rats; type: in vivo, rat (male Wistar); conditions: oral
Method: [II]Inhibitory activity against homologous passive cutaneous anaphylaxis (PCA) in rats
Antiserum was prepared according to I. Mota [Immunology, 7, 681(1964)] and the PCA reaction was conducted according to Maruyama et al. [Nippon yakurigakkaishi, 74, 179(1978)].
(1) Preparation of antiserum
An ovalbumin solution (2 mg/ml) was injected intramuscularly into both thighs of male Wistar rats weighing 200 to 260 g in a volume of 0.5 ml/100 g body weight, and pertussis vaccine (Bordetella pertussis, 2×10^10 /ml, Chibaken Kessei Kenkyujo) was intraperitoneally administered at 1 ml/rat. Twelve days later, blood was taken from posterior aorta under ether anesthesia and antiserum was stored at -80° C.
Group of 4 male Wistar rats weighing 180 to 210 g were employed. Back of the animals was shaved and each 0.05 ml of antiserum (1:32 dilution) was injected intradermally at four sites on the back. After 48 hours, 1 ml of a mixture of ovalbumin (1 mg/ml) and Evans blue (5 mg/ml) was injected intravenously into the tail. 30 Minutes later, the animals were killed under ether anesthesia. The blue-dyed area (mm^2) formed was measured and an inhibition rate(%) was calculated as compared with control.
Test compound suspended in a 2.5% acacia containing 0.2% Tween 80 was administered orally in a volume of 0.5 ml/100 g body weight 1 hour before the antigen. Tranilast was administered orally 30 minutes before the antigen.

[5] = 100 mg/kg, 1 hour before the antigen

T1 sequence (P00533 25-1210): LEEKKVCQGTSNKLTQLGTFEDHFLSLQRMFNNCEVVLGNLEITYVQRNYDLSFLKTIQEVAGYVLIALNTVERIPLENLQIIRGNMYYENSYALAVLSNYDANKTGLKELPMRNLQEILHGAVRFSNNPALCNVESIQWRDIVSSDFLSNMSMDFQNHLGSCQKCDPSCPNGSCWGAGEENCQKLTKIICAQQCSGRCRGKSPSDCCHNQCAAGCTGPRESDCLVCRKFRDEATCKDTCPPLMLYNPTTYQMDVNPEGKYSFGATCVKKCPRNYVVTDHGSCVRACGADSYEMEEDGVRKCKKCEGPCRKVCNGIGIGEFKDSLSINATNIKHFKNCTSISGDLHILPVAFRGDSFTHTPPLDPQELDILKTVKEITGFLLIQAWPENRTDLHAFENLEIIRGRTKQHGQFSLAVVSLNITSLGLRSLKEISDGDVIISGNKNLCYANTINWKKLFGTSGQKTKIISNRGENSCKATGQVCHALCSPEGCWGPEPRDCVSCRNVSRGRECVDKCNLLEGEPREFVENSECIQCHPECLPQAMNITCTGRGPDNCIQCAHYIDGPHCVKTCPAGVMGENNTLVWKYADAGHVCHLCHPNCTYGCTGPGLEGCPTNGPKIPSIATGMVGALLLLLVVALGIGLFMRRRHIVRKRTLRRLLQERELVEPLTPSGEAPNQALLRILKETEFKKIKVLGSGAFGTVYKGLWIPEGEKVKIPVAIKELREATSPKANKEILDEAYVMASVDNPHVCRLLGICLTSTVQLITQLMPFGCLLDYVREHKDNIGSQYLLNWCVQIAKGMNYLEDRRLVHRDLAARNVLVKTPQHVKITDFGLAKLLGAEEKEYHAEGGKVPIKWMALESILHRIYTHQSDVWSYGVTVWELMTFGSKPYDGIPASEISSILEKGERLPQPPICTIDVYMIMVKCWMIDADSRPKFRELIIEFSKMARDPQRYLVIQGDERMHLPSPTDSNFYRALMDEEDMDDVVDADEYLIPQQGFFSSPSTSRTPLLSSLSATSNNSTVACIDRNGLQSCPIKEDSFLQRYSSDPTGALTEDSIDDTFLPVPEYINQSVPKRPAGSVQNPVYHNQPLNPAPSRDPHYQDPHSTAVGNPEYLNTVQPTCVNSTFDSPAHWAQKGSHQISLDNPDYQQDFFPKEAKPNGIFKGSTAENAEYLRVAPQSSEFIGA
T1 sequence (P01132 977-1029 partner limits assumed): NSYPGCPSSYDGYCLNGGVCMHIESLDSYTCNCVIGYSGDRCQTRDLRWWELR

| SMILES | responders at 100 mg/kg [1] | inhibition at 10 µM ([2]; 10 μM) | responders at 30 mg/kg [1] | also measured |
| --- | --- | --- | --- | --- |
| CCOc1cc(C=C2C(=O)NN(c3ccccc3)C2=O)cc(CSc2ccc(Cl)cc2)c1O [XXXVI] | 25% | 91% |  |  |
| CCOc1cc(C=C(C#N)C(N)=O)cc(CSc2cccc(Cl)c2)c1O [XI] | 25% | 54% |  |  |
| CCOc1cc(C=C(C#N)C(N)=O)cc(CSc2ccc(Br)cc2)c1O [IV] | 25% | 74% |  |  |
| CCOc1cc(C=C(C#N)C(N)=O)cc(CSc2ccc(Cl)c(Cl)c2)c1O [XV] |  | 69% | 100% |  |
| CCOc1cc(C=C(C#N)C(N)=O)cc(CSc2ccc(C)cc2)c1O [IX] |  | 58% | 50% |  |
| CCOc1cc(C=C(C#N)C(N)=O)cc(CSc2ccccc2)c1OC(=O)c1ccccc1 [XVI] | 25% | 40% |  |  |
| CCOc1cc(C=C2C(=O)NN(c3ccccc3)C2=O)cc(CSc2ccccc2)c1O [XXXI] | 20% | 92% |  | inhibition at 100 µM [3]: 59%; Inhibition rate (PCA reaction, blue-dyed area) [4, 5]: 30%; inhibition at 100 µM [2]: 100% |
| COc1cc(C=C2CCNC2=O)cc(CSc2ccc(C)cc2)c1O [XXVIII] | 25% | 55% |  |  |
| CCOc1cc(C=C2CCNC2=O)cc(CSc2ccc(OC)cc2)c1OC [XXIX] | 25% | 30% |  |  |
| CCOc1cc(C=C(C#N)C(N)=O)cc(CSCCCc2ccccc2)c1O [VI] | 25% | 55% |  |  |
| CCOc1cc(C=C(C#N)C(N)=O)cc(CSc2ccccc2OC)c1O [VII] |  | 77% | 75% |  |
| CCOc1cc(C=C2CCOC2=O)cc(CSc2ccccc2)c1O [XXIV] | 20% | 33% |  | inhibition at 100 µM [3]: 28%; Inhibition rate (PCA reaction, blue-dyed area) [4, 5]: 26%; inhibition at 100 µM [2]: 50% |
| CCOc1cc(C=C(C#N)C(N)=O)cc(CSc2c(F)c(F)c(F)c(F)c2F)c1O [V] |  | 60% | 50% |  |
| CCOC(=O)C(=Cc1cc(CSc2ccccc2)c(O)c(OCC)c1)S(C)(=O)=O [XXII] | 20% | 64% |  | inhibition at 100 µM [3]: 27%; Inhibition rate (PCA reaction, blue-dyed area) [4, 5]: 26%; inhibition at 100 µM [2]: 80% |
| CCCCOc1cc(C=C2C(=O)NN(c3ccccc3)C2=O)cc(CSc2ccccc2)c1O [XXXV] | 25% | 100% |  |  |
| Cn1c(=O)c2[nH]cnc2n(C)c1=O [theophylline, reference compound] |  |  | 50% |  |
| CCOc1cc(C=C2CCOC2=O)cc(CSc2ccc(Cl)c(Cl)c2)c1O [XXV] |  | 27% | 75% |  |
| CCOc1cc(C=C(C#N)C(N)=O)cc(CSc2ccccc2)c1OC [XIII] |  | 31% | 50% |  |

| SMILES | responders at 100 mg/kg [1] | inhibition at 10 µM ([2]; 10 μM) | responders at 30 mg/kg [1] | also measured |
| --- | --- | --- | --- | --- |
| CCOc1cc(C=C(C#N)C(N)=O)cc(CSc2cccc(OC)c2)c1O [VIII] | 25% | 72% |  |  |
| O=C1OCCC1=Cc1cc(O)c(O)c(CSc2ccc([N+](=O)[O-])cc2)c1 [XXVI] | 25% | 35% |  |  |
| CCOc1cc(C=C(C#N)C(N)=O)cc(CSc2ccccc2C(=O)OC)c1OC(C)=O [XXI] | 25% | 31% |  |  |
| COc1ccc(/C=C/C(=O)Nc2ccccc2C(=O)O)cc1OC [tranilast, reference compound] | 0% |  |  | Inhibition rate (PCA reaction, blue-dyed area) ([4]; 300 mg/kg, 30 minutes before the antigen (tranilast)): 40% |
| CCOC(=O)C(=Cc1cc(CSc2ccc(C(C)(C)C)cc2)c(O)c(OCC)c1)S(C)(=O)=O [XXIII] | 25% | 40% |  |  |
| COc1cc(C=C2C(=O)NN(c3ccccc3)C2=O)cc(CSc2ccccc2)c1O [XXXII] | 25% | 100% |  |  |
| CCOc1cc(C=C(C#N)C(N)=O)cc(CSc2c(Cl)cccc2Cl)c1O [X] |  | 44% | 75% |  |
| CCOc1cc(C=C2CCNC2=O)cc(CSc2ccccc2)c1OC(=O)c1ccccc1 [XXX] |  | 32% | 50% |  |
| N#CC(=Cc1cc(O)c(O)c(CSc2ccccc2)c1)C(N)=O [XIX] | 25% | 100% |  |  |
| CCOc1cc(C=C(C#N)C(N)=O)cc(CSc2ccc(Cl)cc2)c1O [XIV] |  | 29% | 100% |  |
| O=C1NN(c2ccccc2)C(=O)C1=Cc1cc(O)c(O)c(CSc2ccccc2)c1 [XXXIV] |  | 96% | 50% |  |
| COc1cc(C=C(C#N)C(N)=O)cc(CSc2ccccc2)c1O [XII] |  |  | 50% | inhibition at 10 µM [2]: 86% |
| CCOc1cc(C=C(C#N)C(N)=O)cc(CSc2ccc(OC)cc2)c1O [II] |  | 42% | 75% |  |
| CCOc1cc(C=C2C(=O)NN(c3ccccc3)C2=O)cc(CSc2ccc(Br)cc2)c1O [XXXIII] |  | 71% | 75% |  |
| CCOc1cc(C=C(C#N)C(N)=O)cc(CSc2ccc(C(C)(C)C)cc2)c1O [XVIII] |  | 37% | 75% |  |
| CCOc1cc(C=C(C#N)C(N)=O)cc(CSc2ccc([N+](=O)[O-])cc2)c1O [III] | 25% | 42% |  |  |
| CCOc1cc(C=C(C#N)C(N)=O)cc(CSc2ccccc2)c1OC(C)=O [XVII] | 25% | 36% |  |  |
| CCOc1cc(C=C(C#N)C(N)=O)cc(CSc2ccc(O)cc2)c1O [XX] | 25% | 91% |  |  |
